Source: patent US7498336B2, “Deazaflavin compounds and methods of use thereof” (The United States of America as represented by the …, priority 2003, dated 2009)

How the values were obtained:
rabbit E1 = biological target: T1, rabbit E1 (Oryctolagus cuniculus, UniProt Q29504); assay: E1 only assay (thiol-ester linkage of ubiquitin with E1); type: biochemical; conditions: FIG. 2D
T1 construct: purchased Calbiochem 6620700
T1 sequence (Q29504 1-1058): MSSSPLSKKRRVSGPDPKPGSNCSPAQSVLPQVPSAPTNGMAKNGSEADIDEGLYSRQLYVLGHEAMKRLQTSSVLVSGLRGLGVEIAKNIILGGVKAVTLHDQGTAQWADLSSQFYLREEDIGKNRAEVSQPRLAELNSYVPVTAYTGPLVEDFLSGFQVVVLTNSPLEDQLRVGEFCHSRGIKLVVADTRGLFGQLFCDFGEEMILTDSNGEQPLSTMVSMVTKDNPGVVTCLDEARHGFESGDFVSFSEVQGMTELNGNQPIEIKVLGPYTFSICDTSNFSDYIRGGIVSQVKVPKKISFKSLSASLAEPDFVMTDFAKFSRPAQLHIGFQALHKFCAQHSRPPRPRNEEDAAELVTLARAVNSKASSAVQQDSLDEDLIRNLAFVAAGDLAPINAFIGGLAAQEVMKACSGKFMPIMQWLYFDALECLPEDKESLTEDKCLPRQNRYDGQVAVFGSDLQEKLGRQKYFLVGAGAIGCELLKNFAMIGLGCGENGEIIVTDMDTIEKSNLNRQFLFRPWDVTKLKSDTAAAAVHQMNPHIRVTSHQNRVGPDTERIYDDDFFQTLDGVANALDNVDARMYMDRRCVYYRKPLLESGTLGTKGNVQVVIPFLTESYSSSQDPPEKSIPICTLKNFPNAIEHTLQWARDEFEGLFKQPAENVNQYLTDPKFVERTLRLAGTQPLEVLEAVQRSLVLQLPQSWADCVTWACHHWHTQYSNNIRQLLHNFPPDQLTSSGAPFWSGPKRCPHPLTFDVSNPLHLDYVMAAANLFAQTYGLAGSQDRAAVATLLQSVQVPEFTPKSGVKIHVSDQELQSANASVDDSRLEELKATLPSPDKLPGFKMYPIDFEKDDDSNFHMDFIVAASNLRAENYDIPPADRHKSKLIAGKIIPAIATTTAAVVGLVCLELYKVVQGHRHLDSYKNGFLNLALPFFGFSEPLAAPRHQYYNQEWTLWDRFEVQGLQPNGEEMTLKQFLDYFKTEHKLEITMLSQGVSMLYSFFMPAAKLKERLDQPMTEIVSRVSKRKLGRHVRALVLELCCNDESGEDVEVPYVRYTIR
Description: 2 μl rabbit E1 +12 μl of 1× reaction buffer are mixed together with the test compound followed by addition of 1 μl of ^32P Ub is added for 10 minutes at room temperature followed by resolution by SDS-PAGE under non-reducing conditions to maintain thiol-ester linkages and exposure as above.

GST-UbcH5B = biological target: T2, GST-UbcH5B (Homo sapiens, UniProt P62837); assay: E1+E2 assay with immobilized E2 (thiol-ester linkage with E2); type: biochemical; conditions: FIG. 2E
T2 construct: made in house
Description: c. E1+E2 Assay with Immobilized E2
20 pmoles of bacterially-expressed GST-UbcH5B is bound to GS for 30 minutes at room temperature after washing in 50 mM Tris pH 7.5. Twenty (20) μl of 1× reaction buffer is added. After incubation with the test compound for 1 hour at 23° C. the beads were washed with 50 mM Tris pH 7.5. This was followed by addition of Rabbit E1/32P Ub cocktail (1 μl/1 μl) followed by incubation at 1 hour shaking at 23° C. This is followed by resolution by SDS-PAGE under non-reducing conditions and exposure as above.

[1] = system: Normal human fibroblast MRC-5; assay: Cell based assay for accumulation of MDM2 and p53 (immunoblot); conditions: MRC-5 cells, 50 μM, 8 hours
Description: Methods: Normal human fibroblast MRC-5 were chosen to determine whether the compounds from the high throughput screening can inhibit the E3 activity of Mdm2, i.e. stabilizing MDM2 and p53 in vivo. After being seeded in 12-well tissue culture cluster overnight, the cells were treated with 50 μM of the compounds for 8 hours. They were harvested with trypsin-EDTA, washed with PBS, and lysed with RIPA buffer. Following removal of insoluble pellet by centrifugation for 20 minutes at 10000 rpm, the lysate was separated on 4-20% gradient SDS-polyacrylamide gel and transferred onto nitrocellulose membrane. The membrane was then blotted with anti-p53 antibody (DO-1), anti-MDM2 antibodies (Ab-1 and Ab-2), anti-p27 (Santa Cruz), anti-Nedd4, and anti-p21Waf1 antibody. After extensive washing with PBS containing 0.5% Triton X-100, it was incubated with HRP-labeled donkey anti-mouse antibody and visualized using enhanced chemiluminescence.

T2 sequence (P62837 whole entry): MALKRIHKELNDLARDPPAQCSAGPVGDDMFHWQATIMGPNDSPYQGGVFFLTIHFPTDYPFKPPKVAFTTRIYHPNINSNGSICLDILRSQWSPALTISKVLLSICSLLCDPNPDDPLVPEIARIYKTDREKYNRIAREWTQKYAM

SMILES: O=c1nc2n(-c3cccc(Cl)c3)c3ccc([N+](=O)[O-])cc3cc-2c(=O)[nH]1 [Compound 98C07, 10-(-3-chloro-phenyl)-7-nitro-10H-pyrimido[4,5-b]quinoline-2,4-dione]
- inhibition of thiol-ester linkage of ubiquitin with E1 (rabbit E1): inhibits neither thiol-ester linkages of ubiquitin with E1 nor E2
- inhibition of thiol-ester linkage of ubiquitin with E2 (GST-UbcH5B): inhibits neither thiol-ester linkages of ubiquitin with E1 nor E2
- MDM2 level [1]: specifically increase MDM2 and p53
- p53 level [1]: specifically increase MDM2 and p53
